Reference: patent publication US20220030865A1, “COMPOSITIONS COMPRISING FLORPYRAUXIFEN THAT SAFEN WHITE CLOVER AND METHODS OF USE THEREOF” (CORTEVA AGRISCIENCE LLC, priority 2018, published 2022)

What was measured:
[1] = system: tall buttercup (RANAC, Ranunculus acris); assay: Field trial, postemergence herbicidal effect on pasture weeds
Excerpt: (§1) Trials were designed as randomized complete blocks with four replicates. All trials were established with a minimum plot size of 3 meters (m) by 8 m (width×length). All herbicide treatments were applied post-emergence with applications made to the undesirable vegetation. Herbicides were applied with backpack sprayers using carbon dioxide (CO2) as a propellant. The sprayers utilized flat fan spray nozzles calibrated to deliver a uniform spray pattern that provided thorough coverage of the foliage using a 187 L/ha spray volume. All treatments were applied with Activator 90 non-ionic surfactant at 0.25% v/v.
(§2) The weeds were evaluated on the number of days after application (DAA) given in each table below. Injury to the weeds was assessed visually at several intervals after application as percent overall injury, compared to an untreated control plot. The overall injury assessments were based on visual ratings of growth inhibition, leaf deformity, epinasty, and chlorosis.

[2] = system: mayweed chamomile (ANTCO, Anthemis cotula); assay: as above; details: 14 DAA
Excerpt: as §1, §2

[3] = system: Virginia pepperweed (LEPVI, Lepidium virginicum); assay: as above; details: 27 DAA
Excerpt: as §1, §2

[4] = system: sickle pod (CASOB, Senna obtusifolia); assay: as above
Excerpt: as §1, §2

[5] = system: bitter sneezeweed (HENAM, Helenium amarum); assay: as above
Excerpt: as §1, §2

[6] = system: annual yellow sweetclover (MEUIN, Melilotus indicus); assay: as above; details: 30 DAA
Excerpt: as §1, §2

[7] = system: annual marsh-elder (IVAAN, Iva annua); assay: as above
Excerpt: as §1, §2

[8] = system: brown knapweed (CENJA, Centaurea jacea); assay: as above
Excerpt: as §1, §2

[9] = system: goldenrod (SOOSS, Solidago sp.); assay: as above; details: 67 DAA
Excerpt: as §1, §2

[10] = system: hairy aster (ASTPI, Symphyotrichum pilosum); assay: as above
Excerpt: as §1, §2

[11] = system: white clover (TRFRE, Trifolium repens); assay: Field trial United States, safening effect (visual injury) on white clover
Excerpt: Field trials were established in multiple states in the United States to evaluate the safening effect of herbicide treatments to white clover (TRFRE, Trifolium repens) in existing pasture lands. Trials were designed as randomized complete blocks with four replicates. All trials were established with a minimum plot size of 3 meters (m) by 8 m (width×length).
All herbicide treatments were applied post-emergence with applications made to the white clover. Herbicides were applied with backpack sprayers using carbon dioxide (CO2) as a propellant. The sprayers utilized flat fan spray nozzles calibrated to deliver a uniform spray pattern that provided thorough coverage of the foliage using a 187 L/ha spray volume. All treatments were applied with Activator 90 non-ionic surfactant at 0.25% v/v.
The white clover was evaluated on the number of days after application (DAA) given in each table below. Injury to the white clover was assessed visually at several intervals after application as percent overall injury, compared to an untreated control plot. The overall injury assessments were based on visual ratings of growth inhibition, leaf deformity, epinasty, and chlorosis.

## O=C(O)COc1ccc(Cl)cc1Cl [2,4-D Choline, 2,4-D choline]
[1]; 10 DAA, 750 g ae/ha
  Visual Weed Control RANAC Obs: 8%
[1]; 40 DAA, 750 g ae/ha
  Visual Weed Control RANAC Obs: 28%
[2]; 840 g ae/ha
  Visual Weed Control ANTCO Obs: 30%
[3]; 840 g ae/ha
  Visual Weed Control LEPVI Obs: 74%
[4]; 30 DAA, 840 g ae/ha
  Visual Weed Control CASOB Obs: 10%
[4]; 45 DAA, 840 g ae/ha
  Visual Weed Control CASOB Obs: 10%
[5]; 30 DAA, 840 g ae/ha
  Visual Weed Control HENAM Obs: 74%
[5]; 80 DAA, 840 g ae/ha
  Visual Weed Control HENAM Obs: 90%
[6]; 840 g ae/ha
  Visual Weed Control MEUIN Obs: 20%
[7]; 41 DAA, 840 g ae/ha
  Visual Weed Control IVAAN Obs: 38%
[7]; 56 DAA, 840 g ae/ha
  Visual Weed Control IVAAN Obs: 38%
[7]; 75 DAA, 840 g ae/ha
  Visual Weed Control IVAAN Obs: 30%
[7]; 83 DAA, 840 g ae/ha
  Visual Weed Control IVAAN Obs: 35%
[8]; 67 DAA, 840 g ae/ha
  Visual Weed Control CENJA Obs: 0%
[8]; 88 DAA, 840 g ae/ha
  Visual Weed Control CENJA Obs: 0%
[8]; 117 DAA, 840 g ae/ha
  Visual Weed Control CENJA Obs: 0%
[9]; 840 g ae/ha
  Visual Weed Control SOOS Obs: 15%
[10]; 88 DAA, 840 g ae/ha
  Visual Weed Control ASTPI Obs: 10%
[10]; 117 DAA, 840 g ae/ha
  Visual Weed Control ASTPI Obs: 5%
[11]; 0 DAA, 754 g ae/ha
  Visual Injury TRFRE Obs: 30%
[11]; 0 DAA, 840 g ae/ha
  Visual Injury TRFRE Obs: 6.5%
[11]; 7 DAA, 754 g ae/ha
  Visual Injury TRFRE Obs: 4.8%
[11]; 7 DAA, 840 g ae/ha
  Visual Injury TRFRE Obs: 10%
[11]; 14 DAA, 754 g ae/ha
  Visual Injury TRFRE Obs: 86.2%
[11]; 14 DAA, 840 g ae/ha
  Visual Injury TRFRE Obs: 15%
[11]; 21 DAA, 840 g ae/ha
  Visual Injury TRFRE Obs: 11.2%
[11]; 28 DAA, 840 g ae/ha
  Visual Injury TRFRE Obs: 10%

## COc1c(Cl)ccc(-c2nc(C(=O)OCc3ccccc3)c(Cl)c(N)c2F)c1F [Florpyrauxifen Benzyl, florpyrauxifen benzyl]
[1]; 10 DAA, 9.44 g ae/ha
  Visual Weed Control RANAC Obs: 0%
[1]; 40 DAA, 9.44 g ae/ha
  Visual Weed Control RANAC Obs: 0%
[2]; 12.5 g ae/ha
  Visual Weed Control ANTCO Obs: 10%
[3]; 9.5 g ae/ha
  Visual Weed Control LEPVI Obs: 62%
[3]; 12.5 g ae/ha
  Visual Weed Control LEPVI Obs: 70%
[3]; 19 g ae/ha
  Visual Weed Control LEPVI Obs: 65%
[4]; 30 DAA, 12.5 g ae/ha
  Visual Weed Control CASOB Obs: 10%
[4]; 30 DAA, 19 g ae/ha
  Visual Weed Control CASOB Obs: 10%
[4]; 45 DAA, 12.5 g ae/ha
  Visual Weed Control CASOB Obs: 10%
[4]; 45 DAA, 19 g ae/ha
  Visual Weed Control CASOB Obs: 10%
[5]; 30 DAA, 9.5 g ae/ha
  Visual Weed Control HENAM Obs: 60%
[5]; 30 DAA, 12.5 g ae/ha
  Visual Weed Control HENAM Obs: 60%
[5]; 80 DAA, 12.5 g ae/ha
  Visual Weed Control HENAM Obs: 40%
[6]; 19 g ae/ha
  Visual Weed Control MEUIN Obs: 10%
[7]; 41 DAA, 12.5 g ae/ha
  Visual Weed Control IVAAN Obs: 38%
[7]; 41 DAA, 19 g ae/ha
  Visual Weed Control IVAAN Obs: 50%
[7]; 56 DAA, 12.5 g ae/ha
  Visual Weed Control IVAAN Obs: 42%
[7]; 75 DAA, 9.5 g ae/ha
  Visual Weed Control IVAAN Obs: 25%
[7]; 75 DAA, 12.5 g ae/ha
  Visual Weed Control IVAAN Obs: 48%
[7]; 83 DAA, 9.5 g ae/ha
  Visual Weed Control IVAAN Obs: 30%
[7]; 83 DAA, 12.5 g ae/ha
  Visual Weed Control IVAAN Obs: 48%
[8]; 67 DAA, 19 g ae/ha
  Visual Weed Control CENJA Obs: 62%
[8]; 88 DAA, 19 g ae/ha
  Visual Weed Control CENJA Obs: 62%
[8]; 117 DAA, 9.5 g ae/ha
  Visual Weed Control CENJA Obs: 21%
[8]; 117 DAA, 19 g ae/ha
  Visual Weed Control CENJA Obs: 31%
[9]; 9.5 g ae/ha
  Visual Weed Control SOOS Obs: 75%
[10]; 88 DAA, 9.5 g ae/ha
  Visual Weed Control ASTPI Obs: 75%
[10]; 117 DAA, 9.5 g ae/ha
  Visual Weed Control ASTPI Obs: 20%
